The test system of series [1] is bowel peristalsis / gastric emptying. As to the kind of experiment: postoperative colic (ileus) in a burn patient treated with methylnaltrexone infusion. In kind it is in vivo, human. The conditions noted are these: following administration of the drug (unpublished data). The text has this: Recent human data support the role of endogenous opioids, including endorphins, in the pathogenesis of postoperative ileus in humans. See Taguchi A., et al., “Selective postoperative inhibition of gastrointestinal opioid receptors,” New Engl. J. Med. 345:935-40, 2001. No reference is made to either equine colic or the etiology of perioperative management of equines or other animals. […] Prior to administration, there had been no evidence of bowel peristalsis and no passage of flatus. See Moss J., et al., “Selective postoperative inhibition of gastrointestinal opioid receptors,” (correspondence) New Engl. J. Med. 346(6):455 (2002).

For series [2] the test system is unchanged. The note with it: one burn patient with postoperative colic; infusion 0.3 mg/kg over 15 minutes; during drug administration; cited from earlier work.
The conditions of series [3]: in vivo; cited from earlier work.
For series [4], the system named is morphine-induced rage. The conditions noted are these: in an animal; cited from earlier work.
For series [5] the following is noted: cited from earlier work.
Series [6] relates to gut motility. The note with it: β-endorphin homologues from six species; read-out: IC50 on the standard model of gut motility; cited from earlier work.

For `C[N@+]1(CC2CC2)CC[C@]23c4c5ccc(O)c4O[C@H]2C(=O)CC[C@@]3(O)[C@H]1C5` [methylnaltrexone], in series [1], the gastric residuals entry was “markedly reduced”. Moreover, the “bowel sounds and flatus” value in series [2] is “prompt restoration of bowel sounds and flatus”. Moreover, the “crossing of the blood-brain-barrier” value in series [3] is given as “does not cross the blood-brain-barrier”. Also, in series [4], the “severity of morphine-induced rage” value is “minimize the severity”. Moreover, in series [5] (from the stomach and bowel), the “absorption after oral administration” value is given as “rapidly absorbed”. Moreover, the “time to initial plasma levels” value in series [5] (oral administration, non-enteric coated compound) was 5 to 10 min.

“human endorphin: human homologue of β-endorphin, IC50 printed as 'that of humans'”: in series [6], the IC50 is 12.2 nM.

For orientation: IC50 means the concentration at which inhibition is half-maximal.

The values above are taken from patent publication US20050011468A1, “Use of methylnaltrexone in treating gastrointestinal dysfunction in equines” (priority 2002, published 2005).
